Experimental data: patent US4987121A, “Erythropoietic factor” (Center for Innovative Technology, priority 1988, dated 1991)
Ends that are not written are not given here.

How the values were obtained:
peripheral blood BFU-E = peripheral blood BFU-E assay in the absence of T cells and macrophages; type: cell-based, human; conditions: for BFU-E/culture ± SEM: peripheral blood cells, T cells and macrophages removed
Experimental: The cultures contained peripheral blood derived cells instead of bone marrow cells. After Ficoll-Hypaque separation, preparations from peripheral blood were further incubated in plastic dishes twice for thirty minutes to remove macrophages. The majority of T cells were removed by rosetting with sheep red blood cells, available from the Lampire Corporation of Pipersville, Pa., and centrifugation. The remaining T-cells were removed by incubating the cell suspension with Leu-1 antibody, available from Becton-Dickenson, Inc. of Mountain View, Calif., and rabbit complement. Less than 0.3% of macrophages and T cells could be detected in the remaining cell suspension. The probabilities in Table 1 are as follows: *=p<0.025 and **=p<0.005. There were three observations per group. As shown by Table 1, the number of peripheral blood derived BFU-E increased three fold in the presence 0.32 nM of α-ANF[1-28] in cultures containing 250 mU/ml of Epo and less than 0.3% of T cells and macrophages.

[1] = tested on: erythroid precursors (BFU-E and CFU-E); assay: erythroid progenitor BFU-E and CFU-E assay (statements covering both progenitors); type: cell-based, human; conditions: for effect on the stimulatory effect of Epo on both BFU-E and CFU-E: ANF analog 0.32 nM + Epo 250 mU/ml; for potentiation of erythropoiesis versus concentration: with Epo
Description: (§1) Utilization of cell culture techniques allowed for the detection of molecules other than Epo which act on erythropoietic precursor cells. […] The erythroid progenitor BFU-E and CFU-E assay was utilized for the in vitro studies by the following method:
(§2) (1) Collect bone marrow cells from normal human volunteers after obtaining informed consent.
(§3) (2) Suspend cells in α-medium containing 10% fetal calf serum.
(§4) (3) Separate by Ficoll-Hypaque gradient to obtain an enriched mononuclear cell population.
(§5) (4) Culture cells (5×10^4 per plate) in petri dishes using a methylcellulose technique (see, Iscove, J. Cell Physiol 83: 309, (1974)).
(§6) (5) Add Human Epo, available from the Toyoba Corp. of New York, N.Y., to the culture on day zero.
(§7) (6) Add ANF-like peptides on days zero, two, five, eight, and eleven.
(§8) In the absence of Epo, ANF has no effect on erythroid colony formation. In FIG. 1, the effects of α-ANF[1-28] alone and in conjunction with an added amount of Epo were studied. Human α-ANF[1-28] diluted in α-medium, obtained from the Peninsula Corporation, was added to the cultures every three days starting at day zero. Control cultures were supplemented with Phosphate Buffered Saline (PBS) alone. PBS is available from the GIBCO corporation of Grand Island, N.Y. Triplicate plates were incubated at 37° C. in a humidified atmosphere of 7% CO2 in air. On the eighth day, cell aggregates which contained more than seven erythroid cells were counted as CFU-E. On the fourteenth day, aggregates of forty cells or more were counted as BFU-E. Hemoglobinization of the cells was confirmed by using a Soret band and morphologically from stained smears. In FIG. 1, the number of observations is indicated in the bottom part of the bar. The standard estimates from mean (SEM) are indicated as error bars. Statistical significances were obtained by using Kruskal-Wallis Analysis of Variance (one way by ranks). Probabilities in FIGS. 1 and 2 are indicated by: 1*=p<0.05; 2*=p<0.01;3*=p<0.005; and 4*=p<0.001. […] The relative increase of Epo activity caused by the presence of ANF is the subject of this invention.
The numbers were determined using the lowest ANF concentration as a reference point in each group. There were six observations per group. […] The number values for BFU-E and CFU-E in a culture containing 0.25 U/ml Epo and 0.32 nM α-ANF[1-28] are different for FIGS. 1 and 2 because different human volunteer bone marrow donors were used for each study. The absolute numbers are not the focus of this invention, rather, the subject of this invention is the relative increase in the production of BFU-E and CFU-E caused by Epo in the presence of ANF.

BFU-E = assay: erythroid progenitor BFU-E assay, human bone marrow cells in methylcellulose culture; type: cell-based; conditions: for Potentiation of BFU-E(%): ANF analog 0.32 nM + Epo 250 mU/ml, relative to effect of α-ANF[1-28] (100%)
Description: as §1, §2, §3, §4, §5, §6, §7, §8

CFU-E = assay: erythroid progenitor CFU-E assay, human bone marrow cells in methylcellulose culture; type: cell-based; conditions: for Potentiation of CFU-E(%): ANF analog 0.32 nM + Epo 250 mU/ml, relative to effect of α-ANF[1-28] (100%)
Description: as §1, §2, §3, §4, §5, §6, §7, §8

[2] = in the presence of α-ANF[1-28] 0.32 nM and Epo 250 mU/ml

| Substance | Potentiation of BFU-E(%) (BFU-E) | Potentiation of CFU-E(%) (CFU-E) | effect on the stimulatory effect of Epo on both BFU-E and CFU-E [1] | other results |
| --- | --- | --- | --- | --- |
| erythropoietin [Epo] | – | – | – | BFU-E/culture ± SEM (peripheral blood BFU-E; Experiment 1, Epo 250 mU/ml alone): 7.0 ± 0.9; BFU-E/culture ± SEM (peripheral blood BFU-E; Experiment 2, Epo 250 mU/ml alone): 14.0 ± 2.0; BFU-E and CFU-E yield ([1]; 2,000 mU/ml of Epo compared with 250 mU/ml of Epo, identical α-ANF[1-28] concentrations): higher; effect of Epo alone on erythroid precursors ([1]; Epo alone 250 mU/ml): stimulated both erythroid precursors |
| α-ANF [1-11] (SLRRSSCFGGR; Atrial natriuretic peptide; UniProt P01160 124-134, looked up, fragment) [ANF[1-11], ANF analog available from the Peninsula Corporation] | -1.5 ± 8.8% | 14.8 ± 4.6% | not significant | – |
| α-ANF dimer | 40.2 ± 26.7% | 25.4 ± 13.1% | not significant | – |
| α-ANF[1-28] (SLRRSSCFGGRMDRIGAQSGLGCNSFRY; not fully specified; ends and bridges not checked; UniProt P01160 124-151, looked up) [human atrial natriuretic factor peptide, obtained from the Peninsula Corporation] | 100 ± 24.9% | 100 ± 39.2% | enhanced | increase in BFU-E (BFU-E; Epo 250 mU/ml plus α-ANF[1-28] 0.32 nM versus Epo alone (FIG. 1)): four-fold; actual numbers of BFU-E (BFU-E; [2]): 103±26; increase in CFU-E (CFU-E; Epo 250 mU/ml plus α-ANF[1-28] 0.32 nM versus Epo alone): two-fold; actual numbers of CFU-E (CFU-E; [2]): 440±176; increase in number of peripheral blood derived BFU-E (peripheral blood BFU-E; 0.32 nM α-ANF[1-28], 250 mU/ml Epo, less than 0.3% of T cells and macrophages): three fold; BFU-E/culture ± SEM (peripheral blood BFU-E; Experiment 1, ANF 0.32nM + Epo 250 mU/ml): 22.7 ± 1.9; BFU-E/culture ± SEM (peripheral blood BFU-E; Experiment 2, ANF 0.32nM + Epo 250 mU/ml): 42.3 ± 6.8; effect on erythroid precursors / erythroid colony formation in the absence of Epo ([1]; ANF alone, no Epo (0.32 nM in FIG. 1)): no effect; increase of BFU-E and CFU-E production ([1]; in the presence of Epo): up to four fold; potentiation of erythropoiesis versus concentration ([1]; α-ANF[1-28] concentrations above 0.96 nM): leveled off or even declined; potentiation of erythropoiesis versus concentration ([1]; α-ANF[1-28] increased from 0.032 nM to 0.96 nM): concentration dependent potentiation |
| α-ANF[4-28] (RSSCFGGRMDRIGAQSGLGCNSFRY; ends and bridges not checked; cysteine pairing not given here; UniProt P01160 127-151, looked up, fragment) [ANF analog available from the Peninsula Corporation; a major circulatory form of ANF] | 74.8 ± 15.3% | 208 ± 41.0% | enhanced | – |
| α-ANF[5-28] (SSCFGGRMDRIGAQSGLGCNSFRY; ends and bridges not checked; cysteine pairing not given here; UniProt P01160 128-151, looked up, fragment) [ANF analog available from the Peninsula Corporation; a major circulatory form of ANF] | 98.5 ± 38.6% | 143 ± 26.7% | enhanced | – |
